This is an account of results in US7449466B2, “Cyclic aminophenyl sulfamate derivative” (Aska Pharmaceutical Co., Ltd., priority 2003, dated 2008).

Data set [1] addresses T1, steroid sulfatase (Homo sapiens, UniProt P08842).
T1 sequence (P08842 22-583): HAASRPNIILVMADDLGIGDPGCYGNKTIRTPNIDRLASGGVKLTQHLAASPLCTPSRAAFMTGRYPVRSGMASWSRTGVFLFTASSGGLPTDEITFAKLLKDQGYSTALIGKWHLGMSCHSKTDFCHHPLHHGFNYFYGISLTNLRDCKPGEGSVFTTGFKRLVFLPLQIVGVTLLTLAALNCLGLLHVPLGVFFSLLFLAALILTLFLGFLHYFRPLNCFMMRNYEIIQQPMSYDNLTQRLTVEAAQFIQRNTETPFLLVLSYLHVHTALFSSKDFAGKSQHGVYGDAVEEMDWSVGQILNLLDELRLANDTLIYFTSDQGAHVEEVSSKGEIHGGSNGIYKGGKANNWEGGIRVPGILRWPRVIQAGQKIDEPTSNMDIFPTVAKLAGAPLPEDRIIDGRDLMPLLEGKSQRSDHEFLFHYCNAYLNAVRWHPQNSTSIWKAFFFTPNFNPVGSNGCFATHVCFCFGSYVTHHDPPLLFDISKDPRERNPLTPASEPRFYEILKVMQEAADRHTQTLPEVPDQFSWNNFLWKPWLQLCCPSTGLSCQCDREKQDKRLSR
As to conditions: background statement; cited from earlier work.

The conditions of data set [2]: background statement; cited from earlier work.
Data set [3] concerns Salmonella typhimurium TA100 and TA98, and Escherichia coli WP2 uvrA strains. Nature of the data set: Miniscreen method, bacterial reverse mutation, with and without metabolic activation. Type of data set: cell-based. Particulars: 10-1,000 μg/well; with and without Rat Liver S9mix; positive = revertant colonies twice or more of control. As to the method:
(4) Miniscreen Method for Examining Presence of Genetic Toxicity:
Reverse mutation-inducing activity of the test comounds on bacteira was examined by Miniscreen method (Environ. Mol. Mutagen., 35, 72-77). Salmonella typhimurium TA100 and TA98, and Escherichia coli WP2 uvrA strains were used for the test. The test was conducted by plate incorporation method as to both cases where metabolic activation was not conducted, or conducted. The dosages were set at six levels as 0, 10, 50, 100, 500 and 1,000 μg/well.
To the minimum glucose-agar medium formed on a 6-well plate, 0.02 mL of a test compound solution or a solvent, 0.1 mL of 0.1 M sodium-phosphate buffer (pH=7.4), 0.025 mL of the bacterial suspension and 0.5 mL of soft agar solution were added per well and mixed. Where metabolic activation was conducted, 0.1M sodium-phosphate buffer (pH=7.4) was replaced with 0.1 mL of Rat Liver S9mix. After the soft agar solution solidified, the bacterial strains were cultured at 37° C. for 48 hours. At the end of the culture the number of revertant colonies on the plate was visually counted using a colony counter. Reverse mutation inducing activity of each of the test compounds was judged to be positive where the number of the revertant colonies increased by twice or more than that in the solvent-added control well, and judged negative where the increase was equivalent to the control. […]

Data set [4] has as its system Chinese hamster lung fibroblast cells (CHL/IU cells). Nature of the data set: In vitro micronucleus cell induction test. Type of data set: cell-based. As to the method: (5) In vitro Micronucleus Cell Induction Test for Examining Genetic Toxicity: Presence of micronucleited cell-inducing activity of the test compounds on cultured cells due to chromosome aberration was examined by in vitro micronucleus test (mutagenesis test, 3, 238-245) by Lab-Tek method. The test was conducted by continuous treatment method, using Chinese hamster lung fibroblast cells (CHL/IU cells). The test compound concentration was set at three levels: 50% proliferation inhibitory concentration (IC50), and at the concentration levels attained by diluting it by common ratio one time and two times. […] One (1) mL of 0.075 M aqueous potassium chloride solution was added and a 5 minutes' hypotonic treatment was conducted at room temperature. After termination of the hypotonic treatment, the cells were fixed with a fixative (methanol: acetic acid=99:1). The slide detached from the chamber was stained with an aqueous […] orange solution (40 μg/mL). […] In the case wherein the micronucleited cells increased by a rate twice or more than that in the control well to which the solvent only had been added, the micronucleited cell induction activity was judged positive, and in the case wherein the increase rate was equivalent to that of the control, negative. The test results were as shown in the following Table 4, concurrently with the results of the test (4).

As for `C[C@]12CC[C@@H]3c4ccc(OS(N)(=O)=O)cc4CC[C@H]3[C@@H]1CCC2=O` [EMATE, estrone-3-sulfamate], in data set [1], the “steroid sulfatase inhibiting activity” value was “potent steroid sulfatase inhibiting activity”. For the same compound, the estrogenic activity result in data set [2] was “potent estrogenic activity”.

As to `Cc1cc(=O)oc2cc(OS(N)(=O)=O)ccc12` [COUMATE, 4-methylcoumarin-7-sulfamate], in data set [1], the “steroid sulfatase inhibiting activity” value was “low level of steroid sulfatase inhibiting activity”. For the same compound, in data set [2], the estrogenic activity entry was “free from estrogenic activity”.

`N#Cc1cc(OS(N)(=O)=O)ccc1N1CCN(CCCC2CCCCC2)CC1` [Example 13, 3-cyano-4-[4-(3-cyclohexylpropyl)piperazin-1-yl]-phenyl-O-sulfamate]: the “Miniscreen method (reverse mutation inducing activity)” value in data set [3] is recorded as “negative”. Also, in data set [4], the “In vitro micronucleited cell induction test” value is recorded as “negative”.
